Data taken from patent US9115363B2, “Gene expression and eradication system in Helicobacter pylori” (priority 2011, dated 2015).
Several values for one entry are separate records, joined by “and”; a condition that tells them apart may be missing. Identical values can stand only once.

What was measured:
ptetR2 and uPtetO1-GFP = test: GFP disc diffusion assay; format: cell-based, H. pylori; conditions: bacterial lawns containing ptetR2 and uPtetO1-GFP; after 24 hours of incubation
[1] = tested on: urease activity of X47 urePtetO strains; test: Liquid urease activity assay; format: cell-based, H. pylori
Procedure: Bacteria were grown on CBA plates with or without 50 ng/mL ATc for two successive passages. Bacteria were resuspended in cold buffer A (25 mM phosphate buffer, pH 6.8) and standardized to an OD600 of 4.0. 50 μL of standardized bacterial suspension was diluted with 50 μL of buffer B (25 mM phosphate buffer, pH 6.8, 0.2% tween-20). In 96 well plate, 25 μL of diluted bacterial suspension was diluted with 150 μL of buffer C (25 mM phosphate buffer, pH 6.8, 250 μM phenol red) and incubated for 5 min at 37° C. 75 μL of urea solution (0.5 M) was then added and the absorbance at 560 nm was measured every 72 seconds for 75 cycles using a POLARstar Omega (BGM Labtech) platereader. Activity was measured as the rate of change in absorbance over time and expressed as percent of urease activity of the wild-type parent strain. All urease activity measurements were carried out in triplicate and experiments were repeated three times.

urease activity = test: Urease disc diffusion assay; format: cell-based, H. pylori; conditions: plate inoculated with untreated bacteria
Procedure: Bacteria were plated onto urease plates, and blank discs were placed onto the inoculated plate. 10 μL of ATc was placed onto each disc and plates were incubated under microaerophilic conditions and examined for colour change every […].

revTetR = revTetR (Escherichia coli, UniProt P0ACT4); conditions: cited from earlier work
[2] = tested on: TetR-controlled GFP expression (uPtetO-GFP); test: GFP reporter assay, liquid culture (BHI), induction by ATc; format: cell-based, H. pylori; conditions: for induction of GFP expression: 100 ng/mL ATc, BHI media
Procedure: 5 mL cultures were grown for 14 h and then induced with 200 ng/mL ATc unless otherwise stated. Bacteria were harvested by centrifugation, washed twice with PBS and resuspended to a density of 20D600. Then, 0.1 ml of the bacterial suspension was transferred into black 96-well plates, and fluorescence at 520 nm after excitation at 485 nm was measured in using the POLARstar Omega platereader.

[3] = tested on: B128 pHel2-IEC-Ts-FliCsyn transconjugants; test: Immunoblotting of conditional fliCsyn expression; format: cell-based, H. pylori; conditions: selective blood agar plates with 50 ng/ml ATc; all tested clones
Procedure: The conditional expression of fliCsyn and expression of TetRs in the transconjugants B128 pHel2-IEC-Ts-FliCsyn was analyzed by immunobloting.
Bacteria were grown for 24 hours on selective plates or in selective liquid media. Cells were harvested and resuspended in phosphate-buffered saline (PBS) buffer. Samples were then sonicated for 10 seconds, mixed with sodium dodecyl sulfate (SDS) sample buffer and incubated at 37° C. for 15 min. Insoluble cell debris was removed by centrifugation at 13,000 rpm for 1 min. The proteins were separated by 10% SDS-polyacrylamide gel electrophoresis (PAGE) and electro-transferred to a PVDF membrane (Immobilon-P Transfer (0.45 μm, Millipore) with a constant voltage of 100 V in transfer buffer (192 mM glycine, 25 mM Tris, 20% [vol/vol] methanol) for 1 hour. The membranes were blocked with 3% BSA (Sigma) in PBST (150 mM NaCl, 10 mM Tris-C1, pH 7.0, 0.1% [vol/vol] Tween 20) and then incubated with the appropriate primary antibody, washed and then incubated with a secondary antibody containing a horseradish peroxidise (HRP) conjugate. The membrane was washed again and detection of secondary HRP conjugate was accomplished by chemiluminescence (Sigma). For detection of Cre recombinase, rabbit polyclonal IgG anti Cre (abcam) was used at a dilution of 1:1000. […] Chemiluminescence was detected using LAS 3000 (Fujifilm)(software Image reader LAS 3000 V2.2)

[4] = tested on: TetR-controlled GFP expression; test: Kinetics of uPtetO1-GFP induction by immunoblotting; format: cell-based, H. pylori
Procedure: (§1) Immunoassays—SDS-PAGE and Western Blot Analysis
Whole cell lysates of bacteria growing on either chloramphenicol or streptomycin plates was resuspended in phosphate-buffered saline (PBS) buffer. Cells were pelleted and resuspended in lysis buffer (50 mM Tris-HCl, 250 mM NaCl, 1% triton X-100) and incubated on ice for 15 min. Samples were then sonicated for 10 sec. Insoluble cell debris was removed by centrifugation at 13,000 rpm form 10 min at 4° C. Cell lysates were mixed with sodium dodecyl sulfate (SDS) sample buffer and incubated at 95° C. for 10 min. The proteins were separated by 10% SDS-polyacrylamide gel electrophoresis (PAGE) and electrotransferred to a pvdf (0.22 μm Immobulon, Millipore) membrane at 4° C. with a constant voltage of 90 V in transfer buffer (192 mM glycine, 25 mM Tris, 20% [vol/vol] methanol) for 2 hours. The membrane was blocked by using 2% BSA (Sigma) in PBST (150 mM NaCl, 10 mM Tris-C1, pH 7.0, 0.1% [vol/vol] Tween 20) and then incubated with the appropriate primary antibody, washed and then incubated with a secondary antibody containing a horseradish peroxidise (HRP) conjugate. The membrane was washed again and detection of secondary HRP conjugate was accomplished by chemiluminescence (Sigma). […] Chemiluminescence was detected using LAS 3000 (Fujifilm)(software Image reader LAS 3000 V2.2)

[5] = tested on: urePtetO promoters (UreB subunit); test: Immunoblotting of UreB in urePtetO strains; format: cell-based, H. pylori
Procedure: as §1
Whole cell lysates of bacteria growing on either chloramphenicol or streptomycin plates was resuspended in phosphate-buffered saline (PBS) buffer. Cells were pelleted and resuspended in lysis buffer (50 mM Tris-HCl, 250 mM NaCl, 1% triton X-100) and incubated on ice for 15 min. Samples were then sonicated for 10 sec. Insoluble cell debris was removed by centrifugation at 13,000 rpm form 10 min at 4° C. Cell lysates were mixed with sodium dodecyl sulfate (SDS) sample buffer and incubated at 95° C. for 10 min. The proteins were separated by 10% SDS-polyacrylamide gel electrophoresis (PAGE) and electrotransferred to a pvdf (0.22 μm Immobulon, Millipore) membrane at 4° C. with a constant voltage of 90 V in transfer buffer (192 mM glycine, 25 mM Tris, 20% [vol/vol] methanol) for 2 hours. The membrane was blocked by using 2% BSA (Sigma) in PBST (150 mM NaCl, 10 mM Tris-C1, pH 7.0, 0.1% [vol/vol] Tween 20) and then incubated with the appropriate primary antibody, washed and then incubated with a secondary antibody containing a horseradish peroxidise (HRP) conjugate. The membrane was washed again and detection of secondary HRP conjugate was accomplished by chemiluminescence (Sigma). For detection of TetR and revTetR, rabbit polyclonal IgG anti TetR (MoBiTec) at a dilution of 1:2000 was used as the primary. For detection of UreB subunit, mouse monoclonal IgG anti UreB (Austral Biologicals) was used at a dilution of 1:8000. For detection of GFP, rabbit polyclonal anti GFP (Ondek) was used at a dilution of 1:2000. Secondary antibodies, mouse anti-rabbit-HRP and rabbit anti-mouse-HRP (Jackson ImmunoResearch Laboratories) were used at a dilution of 1:10,000. Chemiluminescence was detected using LAS 3000 (Fujifilm)(software Image reader LAS 3000 V2.2)

[6] = tested on: GFP expression in strains expressing TetR or revTetR; test: GFP fluorescence on blood agar plates with ATc; format: cell-based, H. pylori; conditions: 50 ng/mL ATc in blood agar plates
Procedure: Bacteria were plated onto fresh CBA plates with or without 50 ng/mL ATc and visualized after 24 hr incubation. For Tet-OFF strains, ptetR(2,4,6) bacteria were passaged twice on CBA plates containing ATc prior to the experiments, to allow strains enough time to repress GFP expression.

TetR = TetR (Escherichia coli, UniProt P0ACT4, D23E/I36V/T20V); conditions: cited from earlier work
[7] = tested on: uPtetO-cre in X47 mdaB:: ptetR2; test: Immunoblotting of conditional cre expression; format: cell-based, H. pylori; conditions: 50 ng/ml ATc, liquid culture, trpA:: uPtetO-cre, both strains
Excerpt: In order to conditionally express the Cre recombinase in H. pylori two Tet responsive promoters uPtetO1 and uPtetO2 were selected to control the cre expression. They consist of the core urease promoter containing a C to T mutation in the −10 box and one tetO site just downstream of the transcriptional start point. uPtetO2 contains a second tetO site between the −35 and −10 box. A synthetic H. pylori codon usage optimized version of the cre gene was amplified and cloned into the plasmid pTrpA-uPtetO1-GFP and pTrpA-uPtetO2-GFP to replace GFP. Natural transformation of the recipient strain H. pylori X47 mdaB:: ptetR2; trpA:: rpsL-CAT with these plasmids (pTrpA-uPtetO(1/2)-Cre) allowed integration of uPtetO-cre fusions in the chromosome at the trpA locus by homologous recombination. The conditional expression of cre in the constructed strains X47 mdaB:: ptetR2; trpA:: uPtetO-cre was analyzed by immunoblotting. Bacteria were grown in liquid culture the presence of none or 50 ng/ml ATc, respectively.
Immunoassay—SDS-PAGE and Western Blot Analysis.
Bacteria were grown for 24 hours on selective plates or in selective liquid media. Cells were harvested and resuspended in phosphate-buffered saline (PBS) buffer. […] Chemiluminescence was detected using LAS 3000 (Fujifilm)(software Image reader LAS 3000 V2.2)

[8] = tested on: urePtetO induction of Tet-ON strains; test: Urease plate assay; format: cell-based, H. pylori; conditions: for ATc concentration at which significant urease activity is detected: after 24 h
H. pylori = test: Minimal inhibitory concentration of ATc in liquid culture; format: cell-based; conditions: MIC as measured in liquid culture; maximal induction at 100 ng/mL
[9] = tested on: Tet-ON mdaB::ptetR; urePtetO strains; test: In vivo induction of urePtetO by doxycycline, C57BL/6J infection model; parameters: species or system H. pylori; conditions: for dox concentration at which the strain could be re-isolated: one week of infection, C57BL/6J mice
Procedure: Regulation of urePtetO to drive the expression of urease by dox was evaluated using a C57BL/6J infection model. Mice were orally challenged with one of several Tet-ON, mdaB::ptetR; urePtetO strains and supplemented with a range of dox concentrations that were within the tolerance of X47. Urease is known to be an essential gene required for colonization, and therefore Tet-ON urePtetO strains should not be able to colonize in the absence of the inducer. […] Infection of urePtetO strains is dependent on dox supplementation (FIG. 9F). Mice were supplemented with dox for two weeks after infection to establish successful colonization of mdaB:: ptetR4; urePtetOI. […] Infection by strain mdaB::ptetR4; urePtetOI could be maintained for at least 4 weeks with dox supplementation.
6-7 week old C57BL/6J female mice were orally gavaged once with 200 μL of 1×10^9 CFU/mL bacteria, that had been passaged on CBA plates containing 50 ng/mL ATc to induce expression of tetracycline responsive genes. Mice were supplemented with doxycycline in their drinking water containing 5% sucrose. Mice were sacrificed at indicated time points and stomachs were removed and homogenized in 1 mL BHI using a tissue lysing agent (Retch). Homogenates were serially diluted and plated out on H. pylori selective plates, (CBA containing 5% Horse blood, Dent, polymyxin B 2500 U/L or 0.2975 mg/L, nalidixic acid 10 mg/L and Bacitracin 100 mg/L). Colonies were counted to calculate bacteria load. Re-isolated clones were checked for tet responsive gene expression and sequenced when appropriate.

revTetR, sequence (P0ACT4 with tags, fused parts or gaps E15A/L17G/T20V/D23E/L25V/I36V): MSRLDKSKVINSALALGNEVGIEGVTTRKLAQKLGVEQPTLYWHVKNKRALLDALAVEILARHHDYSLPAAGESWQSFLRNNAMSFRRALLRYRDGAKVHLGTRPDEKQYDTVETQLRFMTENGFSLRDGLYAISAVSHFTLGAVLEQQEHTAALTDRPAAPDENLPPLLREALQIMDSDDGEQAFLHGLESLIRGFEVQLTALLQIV
TetR, sequence (P0ACT4 with tags, fused parts or gaps T20V/D23E/I36V): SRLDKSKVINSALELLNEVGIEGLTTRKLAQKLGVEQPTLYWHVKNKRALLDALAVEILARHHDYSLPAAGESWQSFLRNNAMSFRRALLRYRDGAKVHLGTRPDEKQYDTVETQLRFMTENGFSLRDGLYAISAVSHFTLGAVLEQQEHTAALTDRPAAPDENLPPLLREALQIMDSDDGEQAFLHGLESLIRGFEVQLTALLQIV

Cc1c2c(c(O)c3c(O)cccc13)C(=O)[C@]1(O)C(=O)C(C(N)=O)=C(O)[C@@H](N(C)C)[C@@H]1C2 [ATc, Anhydrotetracycline]
GFP expression around ATc discs (ptetR2 and uPtetO1-GFP): halo of GFP expression is evident around each disc
urease activity on addition of ATc ([1]; strains ptetR2, urePtetOI and V, ptetR3, urePtetOIV and ptetR6, urePtetOV): only partially restored
urease activity on addition of ATc ([1]; strains ptetR2, urePtetOII, ptetR3, urePtetOI, II and III): completely restored urease activity
urease activity on addition of ATc ([1]; the other Tet-ON strains): below 10 % of wild-type urease activity
urease activity by diffusion of ATc from disc (urease activity): induced
binding affinity for revTetR (revTetR): very high binding affinity
induction of GFP expression ([2]; ptetR2 uPtetO1, all three recipient loci): 4-9 fold
induction of GFP expression ([2]; ptetR4 uPtetO1, all three recipient loci): 13-80 fold
induction of GFP expression ([2]; ptetR6 uPtetO1, all three recipient loci): 2-5 fold
induction of GFP expression ([2]; uPtetO2 strains, ptetR2): 1.5-3 fold
induction of GFP expression ([2]; uPtetO2 strains, ptetR4): 3-8 fold
induction of GFP expression ([2]; uPtetO2 strains, ptetR6): 3-8 fold
ATc concentration giving maximal GFP activities ([2]; bacteria grown in different concentrations of ATc): 100 ng/mL
GFP activities compared with maximal induction ([2]; induction with 25 ng/ml ATc): 2.4 fold lower
expression of FliCsyn [3]: showed expression of FliCsyn
time of maximal GFP activities after the addition of ATc ([4]; ptetR2 and ptetR4 containing bacteria): 16 h
kinetics of GFP induction ([4]; ptetR6 containing bacteria): strong but delayed induction
repression of UreB expression ([5]; constructs I, II and V of the Tet-OFF system): Incomplete repression
response of urePtetO to ATc ([5]; strains harbouring ptetR3): did not display response
abundance of the UreB subunit upon the addition of ATc ([5]; strains harbouring the revTetR repressor (Tet-OFF system)): reduced below the detection limit
GFP expression (observed fluorescence intensities) ([6]; strains expressing TetR): induction
GFP expression (observed fluorescence intensities) ([6]; strains expressing revTetR): repression
binding affinity for TetR (TetR): very high binding affinity
cre expression [7]: induced
ATc concentration sufficient to induce all five urePtetO promoters ([8]; ptetR4 strains): 1 ng/mL
ATc concentrations at which urease activity decreases ([8]; ptetR4 strains): above 25 ng/mL
ATc concentrations at which urease activity decreases ([8]; ptetR6 strains): above 50 ng/mL
ATc concentration at which urease activity is evident ([8]; ptetR6 strains, urePtetOIII, only after 48 hr): 25 ng/mL and 50 ng/mL
ATc concentration at which significant urease activity is detected ([8]; ptetR6 strains, urePtetOIV): 10 ng/mL
ATc concentration at which significant urease activity is detected ([8]; ptetR6 strains, urePtetOV): 5 ng/mL
ATc concentration of maximal induction relative to the minimal inhibitory concentration (MIC) (H. pylori): 10 fold below

C[C@H]1c2cccc(O)c2C(=O)C2=C(O)[C@]3(O)C(=O)C(C(N)=O)=C(O)[C@@H](N(C)C)[C@@H]3[C@@H](O)[C@@H]21 [dox, doxycycline]
time infection could be maintained with dox supplementation ([9]; strain mdaB::ptetR4, urePtetOI): at least 4 weeks
dox concentration at which the strain could be re-isolated ([9]; strain mdaB::ptetR4, urePtetOI): 0.1 to 5 µg/mL
dox concentration at which the strain could be re-isolated ([9]; strain mdaB::ptetR6, urePtetOV): 5 to 20 µg/mL
